Experimental data reported in BindingDB's records for patent US10487086 (Bristol Myers Squibb, 2019).

Target: Coagulation factor XI (Homo sapiens, UniProt P03951)
Experiment: Factor XIa assay
Procedure: The effectiveness of compounds of the present invention as inhibitors of the coagulation Factors XIa, VIIa, IXa, Xa, XIIa, plasma kallikrein or thrombin, can be determined using a relevant purified serine protease, respectively, and an appropriate synthetic substrate. The rate of hydrolysis of the chromogenic or fluorogenic substrate by the relevant serine protease was measured both in the absence and presence of compounds of the present invention. […] A decrease in the rate of absorbance or fluorescence change in the presence of inhibitor is indicative of enzyme inhibition. Such methods are known to one skilled in the art. […] Determinations were made using purified human Factor XIa at a final concentration of 25-200 pM (Haematologic Technologies) and the synthetic substrate S-2366 (pyroGlu-Pro-Arg-pNA; CHROMOGENIX or AnaSpec) at a concentration of 0.0002-0.001 M.

Coagulation factor XI, sequence (P03951 19-387 limits assumed): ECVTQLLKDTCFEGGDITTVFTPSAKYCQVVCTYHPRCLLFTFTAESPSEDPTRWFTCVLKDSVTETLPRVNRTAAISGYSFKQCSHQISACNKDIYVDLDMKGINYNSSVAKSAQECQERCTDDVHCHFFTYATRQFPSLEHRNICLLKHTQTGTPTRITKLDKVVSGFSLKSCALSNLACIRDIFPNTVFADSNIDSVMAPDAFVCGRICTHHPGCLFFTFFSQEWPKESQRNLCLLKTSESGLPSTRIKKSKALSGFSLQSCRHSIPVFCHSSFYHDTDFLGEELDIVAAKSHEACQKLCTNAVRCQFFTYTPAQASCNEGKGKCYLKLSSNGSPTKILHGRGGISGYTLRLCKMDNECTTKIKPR
Coagulation factor XI, sequence (P03951 388-625 limits assumed): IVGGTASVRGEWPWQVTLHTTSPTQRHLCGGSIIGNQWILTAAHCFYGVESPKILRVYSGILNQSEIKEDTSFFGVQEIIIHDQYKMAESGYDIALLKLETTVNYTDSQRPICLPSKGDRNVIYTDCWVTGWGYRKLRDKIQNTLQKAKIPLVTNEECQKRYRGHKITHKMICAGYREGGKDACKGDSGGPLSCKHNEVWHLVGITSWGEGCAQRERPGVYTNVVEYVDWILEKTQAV

Ki: 580 nM
Structure (SMILES): COC(=O)Nc1ccc2c(c1)N[C@@H](C(=O)O)CCCC[C@H](NC(=O)/C=C/c1cc(Cl)ccc1-n1cnnn1)c1nc-2c[nH]1 [US10487086, Example I-84]
